Experiments:
[1] = test system: inflammatory mediators in arthritis tissue (IL-1β, IL-6, IL-17, TNF-α, MCP-1, MIP-2, IL-2); test: Multiplex protein immunoassay (Luminex multi-analyte-ELISA) of inflammatory mediators in arthritic tissue; assay type: in vivo, mouse; conditions: for ELISA values in Arthritis Paw, IL-1β, Mean / ELISA values in Arthritis Paw, IL-6, Mean / ELISA values in Arthritis Paw, IL-17, Mean / ELISA values in Arthritis Paw, TNF-α, Mean: CIA mice, Example 3, positive control groups (MTX, Xeljanz); for MCP-1, ELISA values in Arthritis Paw (pg/mL) Mean / MIP-2, ELISA values in Arthritis Paw (pg/mL) Mean: MTX 1 mg/kg ip twice/week, MTX 1 mg/kg + Q-DDS 3 mg/mouse
From the text: In order to evaluate the inflammatory activity and confirm the mode of action of the test substance through quantitative analysis of inflammatory substances in mouse arthritis tissue and blood, inflammatory mediators were investigated at the protein level. In order to overcome the limitation of the amount of sample that can be extracted for protein analysis, a multi-analyte-ELISA (multi-analyte-ELISA) method based on Luminex technology was used to analyze the largest amount of protein in a small sample.
(§1) The mouse joint tissue obtained after treatment with the test substance in the method of Example 3.1 was pulverized through ceramic beads, and all proteins were extracted using a lysis buffer (Cat. 1713040111, Bio-Rad). Using Pro-reagent kit V, the same amount of protein (2.7 mg/mL) for each administration group was diluted ¼ and reacted with the target-binding beads in a culture dish for 30 minutes. After washing with a wash buffer, it was reacted with the target-measurement antibody for 30 minutes, and after washing with a wash buffer again, it was reacted with streptavidin-PE for 10 minutes. Thereafter, the target protein is quantitatively measured for each administration group using the Bio-Plex® 200 system (Bio-Rad). The target-binding beads were composed of a set that can be combined as needed from Bio-Plex Mouse cytokine 4-plex (IL-1β, IL-6, IL-17A, TNF-α; Cat. 171G5002M), Bio-Plex Pro Mouse Cytokine 1-plex (MCP1; Cat. 171G5019M), Bio-Plex Pro Mouse Cytokine II 1-plex (MIP2; Cat 171G6006M), and Bio-Plex Pro Mouse Cytokine 1-plea (IL-6; Cat. 171 G5007M) (all products are from Bio Rad) and were used for measurement.
For the measurement result, paw tissue weight of the mouse was corrected for the quantified target protein. For each target joint, the hind paw was mainly used, and in order to overcome the limitation of the amount of protein extracted from the joint tissue, up to 4 inflammatory mediators were measured in one well.
On the other hand, as the target protein to be measured, a representative inflammation-promoting cytokine group A (IL-1β, IL-6, IL-17, and TNF-α) among inflammatory mediators, and a chemokine group B (MCP-1 and MIP-2) among inflammatory mediators was selected to carry out the experiment. The measurement results were summarized in FIGS. 12A and 12B, and Tables 19 and 20 below. […]
as §1, with “4.1. above” for “3.1”, “171 G5002M),” for “171G5002M),”, “Cat. 171 G6006M),” for “Cat 171G6006M),”, “1-plex” for “1-plea”, “171G5007M)” for “171 G5007M)”
On the other hand, as the target protein to be measured, a representative inflammation-promoting cytokine group A (IL-1β, IL-6, IL-17, and TNF-α) among inflammatory mediators, and IL-2 and a chemokine group B (IL-2, MCP-1 and MIP-2) among inflammatory mediators were selected to carry out the experiment. The measurement results were summarized in FIGS. 18A and 18B, and Tables 29 and 30 below.

IL-6 = test: Multiplex protein immunoassay of IL-6 in serum of CIA mice; assay type: in vivo, mouse; conditions: Example 3, positive control groups (MTX, Xeljanz)
Description: For the measurement result, paw tissue weight of the mouse was corrected for the quantified amount of IL-6 protein. For each target joint, the hind paw was mainly used, and in order to overcome the limitation of the amount of protein extracted from the joint tissue, up to 4 inflammatory mediators were measured in one well. […]

p65 NF-κB = test: Western blotting of NF-κB activity in LPS-treated SW982 cells; assay type: cell-based, human
Description: (§2) 1× Cell lysis buffer (Cell signaling, CA, USA) was mixed with protease and a phosphatase inhibitor and added to SW982 cells. After extracting the protein from the cells, the concentration was measured, and the same amount of protein was developed on an SDS-polyacrylamide gel, and transferred to an ECL nitrocellulose membrane (Amersham Pharmacia Biotech, Inc., Piscataway, N.J., USA) and blocked with nonfat dried milk for 1 hour. Thereafter, the reaction was performed with the first antibody (p65 NF-κB, phospho p65 NF-κB or calnexin; Cell signaling, CA, USA), while shaking at 4° C. for 24 hours. Then, after shaking and washing 3 times for 10 minutes with PBST buffer, the secondary antibody was incubated with anti-mouse or anti-rabbit HRP-conjugated secondary antibody for 1 hour at room temperature, and reacted with the protein band on the membrane using Supersignal west pico ECL solution (Thermo Fisher Scientific Inc.). The results were visualized with the Bio-Rad Gel Documentation system (Bio-Rad Laboratories, Hercules, Calif., USA), and the results were shown in FIG. 26.
as §2, with “phospho p65 NF-κB, p-ERK, ERK, p-JNK, JNK, p-p38, p38 or calnexin;” for “phospho p65 NF-κB or calnexin;”, “Scientific Inc.). […]” for “Scientific Inc.). The results were visualized with the Bio-Rad Gel Documentation system (Bio-Rad Laboratories, Hercules, Calif., USA), and the results were shown in FIG. 26.”

MAPKs (ERK, JNK, p38) = test: Western blotting of MAPKs activity in LPS-treated SW982 cells; assay type: cell-based, human
Description: Western blotting was performed in the same manner as in Example 6.3. The first antibody used at this time is an antibody against p-ERK, ERK, p-JNK, JNK, p-p38, p38 and calnexin (Cell signaling, CA, USA), and the secondary antibody is anti-mouse or anti-rabbit HRP-binding secondary antibody.
1× Cell lysis buffer (Cell signaling, CA, USA) was mixed with protease and a phosphatase inhibitor and added to SW982 cells. After extracting the protein from the cells, the concentration was measured, and the same amount of protein was developed on an SDS-polyacrylamide gel, and transferred to an ECL nitrocellulose membrane (Amersham Pharmacia Biotech, Inc., Piscataway, N.J., USA) and blocked with nonfat dried milk for 1 hour. Thereafter, the reaction was performed with the first antibody (p65 NF-κB, phospho p65 NF-κB, p-ERK, ERK, p-JNK, JNK, p-p38, p38 or calnexin; Cell signaling, CA, USA), while shaking at 4° C. for 24 hours. Then, after shaking and washing 3 times for 10 minutes with PBST buffer, the secondary antibody was incubated with anti-mouse or anti-rabbit HRP-conjugated secondary antibody for 1 hour at room temperature, and reacted with the protein band on the membrane using Supersignal west pico ECL solution (Thermo Fisher Scientific Inc.). The results were visualized with the Bio-Rad Gel Documentation system (Bio-Rad Laboratories, Hercules, Calif., USA), and the results are shown in FIG. 35.

[2] = Example 3, CIA mouse joint tissue, Xeljanz 10 mg/kg oral once/day
[3] = LPS 1 ug/ml, 0.5, 1, 10, 100 uM, 30 minutes, naltrexone effect at 1 uM

SMILES	ELISA values in Arthritis Paw, IL-1β, Mean [1] [pg/mL]	ELISA values in Arthritis Paw, IL-6, Mean [1] [pg/mL]	ELISA values in Arthritis Paw, IL-17, Mean [1] [pg/mL]	ELISA values in Arthritis Paw, TNF-α, Mean [1] [pg/mL]	MCP-1, ELISA values in Arthritis Paw (pg/mL) Mean [1, 2] [pg/mL]	MIP-2, ELISA values in Arthritis Paw (pg/mL) Mean [1, 2] [pg/mL]	ELISA values in Serum, IL-6, Mean (IL-6) [pg/mL]	phosphorylation of p65 NF-κB increased by LPS (p65 NF-κB; 200 ug/ml of naltrexone, Western blotting)	phosphorylation of p65 NF-κB increased by LPS (p65 NF-κB; [3])	phosphorylation of MAPK increased by LPS (MAPKs (ERK, JNK, p38); 200 or 500 ug/ml of naltrexone, Western blotting)	phosphorylation of MAPKs (ERK1/2, JNK, p38) increased by LPS (MAPKs (ERK, JNK, p38); [3])	IL-17 protein in arthritis tissue [1, 2] [pg/mL]	TNF-α protein in arthritis tissue [1, 2] [pg/mL]
CN(Cc1cnc2nc(N)nc(N)c2n1)c1ccc(C(=O)N[C@@H](CCC(=O)O)C(=O)O)cc1 [Methotrexate, methotrexate]	1.05	1.8	2.269	6.54	76.1	4.4	39.6						
O=C1CC[C@@]2(O)[C@H]3Cc4ccc(O)c5c4[C@@]2(CCN3CC2CC2)[C@H]1O5 [Naltrexone, 17-(cyclopropylmethyl)-4,5α-epoxy-3,14-dihydroxymorphinan-6-one]								inhibited	inhibited	decreased	inhibited		
C[C@@H]1CCN(C(=O)CC#N)C[C@@H]1N(C)c1ncnc2[nH]ccc12 [Xeljanz ®, Tofacitinib]	12.68	88.6	4.57	24.52	207.9	126.8	94.5					4.57	24.52

Source: patent US11730731B2 (INVENTAGE LAB INC., priority 2021, dated 2023)
